ChEMBL document CHEMBL1201862, “PubChem BioAssay data set” (2004)
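Method: 48-hour compound exposure of cells in 96-well plates, five concentrations, linear interpolation of endpoints. GI50 = concentration required for 50% inhibition of growth.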 The source made the active and inactive calls. Rule as the data show it: active = GI50 up to about 1.1 µM and inactive = higher.

How the values were obtained:
Assay in all cases: NCI-60 cell line screen, 48 h
OVCAR-5 = tested on: OVCAR-5
DU-145 = tested on: DU-145
SK-MEL-28 = tested on: SK-MEL-28
A498 = tested on: A498
CCRF-CEM = tested on: CCRF-CEM
T47D = tested on: T47D
786-0 = tested on: 786-0
SF-268 = tested on: SF-268
U-251 = tested on: U-251
RXF 393 = tested on: RXF 393
OVCAR-3 = tested on: OVCAR-3
IGROV-1 = tested on: IGROV-1
HOP-62 = tested on: HOP-62
SF-539 = tested on: SF-539
HT-29 = tested on: HT-29
MDA-N = tested on: MDA-N
SR = tested on: SR
TK-10 = tested on: TK-10
NCI-H226 = tested on: NCI-H226
NCI/ADR-RES = tested on: NCI/ADR-RES

SMILES	GI50 (OVCAR-5)	GI50 (DU-145)	GI50 (SK-MEL-28)	GI50 (A498)	GI50 (CCRF-CEM)	GI50 (T47D)	GI50 (786-0)	GI50 (SF-268)	GI50 (U-251)	GI50 (RXF 393)	GI50 (OVCAR-3)	GI50 (IGROV-1)	GI50 (HOP-62)	GI50 (SF-539)	GI50 (HT-29)	GI50 (MDA-N)	GI50 (SR)	GI50 (TK-10)	GI50 (NCI-H226)	GI50 (NCI/ADR-RES)
CCCCCCCCCCCCCC(=O)CBr	22.1 µM (inactive)	18.6 µM (inactive)	16.5 µM (inactive)	17.4 µM (inactive)	0.467 µM (active)	3.94 µM (inactive)	5.13 µM (inactive)	12.2 µM (inactive)	14.6 µM (inactive)	3.3 µM (inactive)	18.3 µM (inactive)	5.79 µM (inactive)	21.5 µM (inactive)	13.2 µM (inactive)	15.9 µM (inactive)	12.3 µM (inactive)	1.04 µM (active)	15.8 µM (inactive)	17.4 µM (inactive)	
CC1C(O)Oc2cc3c(cc2C1c1ccccc1O)OCO3 (centres undefined)	45.7 µM (inactive)	40.6 µM (inactive)	25.8 µM (inactive)	29.6 µM (inactive)	16.7 µM (inactive)	30.4 µM (inactive)	39.4 µM (inactive)	36.1 µM (inactive)	37.8 µM (inactive)	14.3 µM (inactive)	27.8 µM (inactive)	28 µM (inactive)	65 µM (inactive)	27.9 µM (inactive)	23.3 µM (inactive)	30.5 µM (inactive)	4.65 µM (inactive)	27.4 µM (inactive)	18.6 µM (inactive)	
O=[N+]([O-])c1cc([N+](=O)[O-])c(Nn2c3ccccc3c3ccccc32)c([N+](=O)[O-])c1	4.63 µM (inactive)	4.15 µM (inactive)	3.3 µM (inactive)		2.16 µM (inactive)	0.641 µM (active)	2.74 µM (inactive)	2.94 µM (inactive)	1.82 µM (inactive)			2.18 µM (inactive)	1.87 µM (inactive)	2.12 µM (inactive)	0.857 µM (active)	2.38 µM (inactive)	0.94 µM (active)	2.2 µM (inactive)	1.4 µM (inactive)	3.24 µM (inactive)
CCCNCC(O)CNc1ccc(NCC(O)CNCCC)c2c1C(=O)c1ccccc1C2=O (centres undefined)	1.61 µM (inactive)	6.22 µM (inactive)	2.96 µM (inactive)	11.7 µM (inactive)	0.998 µM (active)	4.02 µM (inactive)	2.03 µM (inactive)	2.03 µM (inactive)	2.57 µM (inactive)		4.37 µM (inactive)	2.04 µM (inactive)	1.82 µM (inactive)	1.71 µM (inactive)	2.17 µM (inactive)	2.74 µM (inactive)	2.42 µM (inactive)	10.6 µM (inactive)	2 µM (inactive)	> 75 µM (inactive)
Cc1nc2ccc(C(F)(F)F)cc2nc1NCc1ccc(Cl)c(Cl)c1	13.1 µM (inactive)	17.9 µM (inactive)	18.4 µM (inactive)		15.5 µM (inactive)	0.735 µM (active)	16.6 µM (inactive)	16 µM (inactive)	16.5 µM (inactive)	12.5 µM (inactive)	13.3 µM (inactive)	16.6 µM (inactive)	14.4 µM (inactive)	17.5 µM (inactive)	15 µM (inactive)	17.3 µM (inactive)	14.8 µM (inactive)	< 0.01 µM (active)	18.1 µM (inactive)	19.9 µM (inactive)
Cc1cc(=O)oc2c(CNC(C(=O)O)C(C)O)c(O)ccc12 (centres undefined)	> 100 µM (inactive)	> 100 µM (inactive)	> 100 µM (inactive)		> 100 µM (inactive)	> 100 µM (inactive)	> 100 µM (inactive)	> 100 µM (inactive)	> 100 µM (inactive)	> 100 µM (inactive)	> 100 µM (inactive)	> 100 µM (inactive)	> 100 µM (inactive)	> 100 µM (inactive)	> 100 µM (inactive)	> 100 µM (inactive)	> 100 µM (inactive)	> 100 µM (inactive)	> 100 µM (inactive)	> 100 µM (inactive)
COc1ccc2[nH]c3c(C)c4ncccc4c(C)c3c2c1	5.61 µM (inactive)	7.55 µM (inactive)	1.99 µM (inactive)		3.85 µM (inactive)	> 10 µM (inactive)	1.52 µM (inactive)	> 10 µM (inactive)	8.43 µM (inactive)	3.59 µM (inactive)	2.71 µM (inactive)	> 10 µM (inactive)	6.84 µM (inactive)	4.73 µM (inactive)	2.22 µM (inactive)	6.81 µM (inactive)	5.22 µM (inactive)	> 10 µM (inactive)	4.41 µM (inactive)	3.12 µM (inactive)
C[C@]1(O)O[C@@H]2OCC[C@@H]2C2=C1C(=O)c1ccccc1C2=O	17.3 µM (inactive)	16.7 µM (inactive)	29.4 µM (inactive)	14.1 µM (inactive)	15.4 µM (inactive)	18.3 µM (inactive)	14.4 µM (inactive)	12.8 µM (inactive)	15.2 µM (inactive)	12.7 µM (inactive)	9.66 µM (inactive)	14.2 µM (inactive)	12.7 µM (inactive)	17.3 µM (inactive)	29.9 µM (inactive)	6.15 µM (inactive)	10.7 µM (inactive)	20.4 µM (inactive)		19.7 µM (inactive)
CCn1c(-c2ccc(OC)cc2)nc2c1C(=O)c1ccccc1C2=O	> 100 µM (inactive)	> 100 µM (inactive)	> 100 µM (inactive)		> 100 µM (inactive)	> 100 µM (inactive)	> 100 µM (inactive)	> 100 µM (inactive)	> 100 µM (inactive)	> 100 µM (inactive)	> 100 µM (inactive)	> 100 µM (inactive)	59.6 µM (inactive)	> 100 µM (inactive)	> 100 µM (inactive)	> 100 µM (inactive)	> 100 µM (inactive)	> 100 µM (inactive)	61.1 µM (inactive)	> 100 µM (inactive)
C=C(C)CCC1CCCCC(CN(C)C)C1=O (centres undefined)	> 100 µM (inactive)	> 100 µM (inactive)	> 100 µM (inactive)	> 100 µM (inactive)	> 100 µM (inactive)	> 100 µM (inactive)	> 100 µM (inactive)	> 100 µM (inactive)	> 100 µM (inactive)		> 100 µM (inactive)	> 100 µM (inactive)	> 100 µM (inactive)	> 100 µM (inactive)	> 100 µM (inactive)	> 100 µM (inactive)	> 100 µM (inactive)	> 100 µM (inactive)	> 100 µM (inactive)	> 100 µM (inactive)
CC(C)=C=CC(C)(C)NS(=O)(=O)NC(C)(C)C=C=C(C)C	> 100 µM (inactive)	> 100 µM (inactive)	> 100 µM (inactive)	> 100 µM (inactive)		15.7 µM (inactive)	> 100 µM (inactive)	89.3 µM (inactive)	> 100 µM (inactive)		71.3 µM (inactive)	> 100 µM (inactive)	> 100 µM (inactive)	> 100 µM (inactive)	75.5 µM (inactive)	> 100 µM (inactive)	18.4 µM (inactive)	> 100 µM (inactive)	> 100 µM (inactive)	> 100 µM (inactive)
CC1(C)CC2C=C(C=O)C3(C=O)CC3(C)C2C1 (centres undefined)	1.79 µM (inactive)	5.45 µM (inactive)	2.06 µM (inactive)		0.0468 µM (active)	1.33 µM (inactive)	1.52 µM (inactive)	3.88 µM (inactive)	1.79 µM (inactive)	1.94 µM (inactive)	0.944 µM (active)	2.15 µM (inactive)	2.09 µM (inactive)	1.95 µM (inactive)	1.41 µM (inactive)	2.9 µM (inactive)	0.218 µM (active)	2.39 µM (inactive)	4.21 µM (inactive)	1.76 µM (inactive)
COC(=O)CCC(=O)c1ccc2c(c1)CC1(Cc3ccccc3C1)C2	53.5 µM (inactive)			48.6 µM (inactive)	16.4 µM (inactive)	39.1 µM (inactive)	94.6 µM (inactive)		58.7 µM (inactive)	> 100 µM (inactive)	57.8 µM (inactive)	> 100 µM (inactive)	> 100 µM (inactive)	> 100 µM (inactive)	20.1 µM (inactive)	49.1 µM (inactive)	14.7 µM (inactive)	78.7 µM (inactive)	24.7 µM (inactive)	64 µM (inactive)
CCOP(=O)(/C=C\n1ccc(N)nc1=O)OCC	> 100 µM (inactive)	> 100 µM (inactive)	> 100 µM (inactive)		> 100 µM (inactive)	> 100 µM (inactive)	> 100 µM (inactive)	> 100 µM (inactive)	> 100 µM (inactive)	> 100 µM (inactive)	> 100 µM (inactive)	> 100 µM (inactive)	> 100 µM (inactive)	> 100 µM (inactive)	> 100 µM (inactive)	> 100 µM (inactive)		> 100 µM (inactive)	> 100 µM (inactive)	> 100 µM (inactive)
O=C1C2=Cc3ccccc3OC2(O)Oc2cc(O)ccc21 (centres undefined)	> 100 µM (inactive)	> 100 µM (inactive)	> 100 µM (inactive)	> 100 µM (inactive)	27.5 µM (inactive)	> 100 µM (inactive)	> 100 µM (inactive)	> 100 µM (inactive)	> 100 µM (inactive)	> 100 µM (inactive)	> 100 µM (inactive)	> 100 µM (inactive)	> 100 µM (inactive)	> 100 µM (inactive)	> 100 µM (inactive)	> 100 µM (inactive)		> 100 µM (inactive)	> 100 µM (inactive)	> 100 µM (inactive)
